Test results published in patent publication US5817755A, “Synthetic peptide analogs of cross-linked N-telopeptides of type I collagen” (Washington Research Foundation, priority 1997, dated 1998).
Non-standard residues stand in square brackets, D forms with d. Residues, ends and D or L forms follow the SMILES beside them. pGlu = O=C1CC[C@@H](C(=O)O)N1; Nva = CCC[C@H](N)C(=O)O

What was measured:
mAb 1H11 [1] = assay: OSTEOMARK competitive immunoassay testing apparent affinity of synthetic peptides for mAb 1H11; format: binding; settings: for Results: peptide binding to mAb 1H11, 1 μg synthetic peptide = X nmole BCE: nanomoles Bone Collagen Equivalents equivalent to 1 μg peptide, back fit into OSTEOMARK standard curve, values between 0.5 and 1 OD averaged; for binding to mAb 1H11 (in words): synthetic peptide, antibody inhibition assay
Description: Generally, a milligram per mL solution of the peptide was made in PBS. The absorbence at A280 was read and the concentration confirmed. Dilutions of the peptide were then made in a buffer such as OSTEOMARK (TM) calibrator diluent (OSTEOMARK Assay, Ostex International, Seattle, Wash.). Working strength concentrations were between 10 and 0.01 micrograms per milliliter.
To test the apparent affinity of the synthetic peptides for mAb 1H11, the OSTEOMARK assay was run using OSTEOMARK kits and components, including monoclonal antibody 1H11. A standard curve was run using OSTEOMARK calibrators. Peptide samples were generally tested at 10, 3, 1, and down to 0.01 μG per mL. The standard OSTEOMARK curve was generated using a four parameter logistic curve fit program (MedData Inc., N.Y., N.Y.). Peptide values were back fit into the standard curve and values were reported in picomoles Bone Collagen Equivalents (BCE)/mL (which equals nanomolar BCE, or nM BCE).
Values in the Table are reported as the number of nanomoles of BCE equivalent to a microgram of a given peptide. Antibody binding values below 500 nMole BCE were considered to be commercially insignificant.

mAb 1H11 [2] = settings: linear peptides in which K is simply lysine; WO 91/08478; Hanson et al. 1992; cited from earlier work

Compound	Results: peptide binding to mAb 1H11, 1 μg synthetic peptide = X nmole BCE (mAb 1H11 [1])	binding to mAb 1H11 (in words) (mAb 1H11 [1])	recognition by mAb 1H11 (in words) (mAb 1H11 [2])
CC(C)[C@H](NC(=O)CNC(=O)[C@H](CCCCN)NC(=O)CNC(=O)[C@H](CC(=O)O)NC(=O)[C@H](Cc1ccc(O)cc1)NC(=O)[C@@H]1CCC(=O)N1)C(=O)NCC(=O)O [SEQ ID NO:9, J Y D G K G V G] ([pGlu]YDGKGVG-OH)	100 nmole BCE	very weak binding partner	recognized very weakly
CC(C)[C@H](NC(=O)CNC(=O)[C@H](CCC(=O)O)NC(=O)CNC(=O)[C@H](CC(=O)O)NC(=O)[C@H](Cc1ccccc1)NC(=O)[C@@H]1CCC(=O)N1)C(=O)NCC(=O)O [SEQ ID NO:36, J F D G E G V G] ([pGlu]FDGEGVG-OH)	14 nmole BCE	blocks mAb 1H11 binding	
CC(C)[C@H](NC(=O)CNC(=O)[C@H](CCC(=O)O)NC(=O)[C@@H](NC(=O)[C@H](CC(=O)O)NC(=O)[C@H](Cc1ccc(O)cc1)NC(=O)[C@@H]1CCC(=O)N1)C(C)C)C(=O)NCC(=O)O [SEQ ID NO:37, J Y D V E G V G] ([pGlu]YDVEGVG-OH)	6 nmole BCE	substantially eliminates mAb 1H11 binding affinity	
CCC[C@H](NC(=O)CNC(=O)[C@H](CC(=O)O)NC(=O)[C@H](Cc1ccc(O)cc1)NC(=O)[C@@H]1CCC(=O)N1)C(=O)NCC(=O)N[C@H](C(=O)NCC(=O)O)C(C)C [SEQ ID NO:38, J Y D G X^5 G V G] ([pGlu]YDG[Nva]GVG-OH)	860 nmole BCE		
CC(C)[C@H](NC(=O)CNC(=O)[C@H](CCC(=O)O)NC(=O)CNC(=O)[C@H](CC(=O)O)NC(=O)[C@H](Cc1ccc(O)cc1)NC(=O)[C@@H]1CCC(=O)N1)C(=O)NCC(N)=O [SEQ ID NO:44, J Y D G E G V X^6] ([pGlu]YDGEGVG-NH2)	< 50 nmole BCE	prevented recognition	
J Y D G C G V G [SEQ ID NO:2]	2500 nmole BCE	excellent binding to mAb 1H11	
J Y D G E G V G L [SEQ ID NO:40, b13: -Lys added to the C-terminus]	< 50 nmole BCE	prevents mAb 1H11 binding	
J Y D G E G V G [SEQ ID NO:29]	< 50 nmole BCE	eliminate the requisite binding of mAb 1H11	
